{
  "source": "patent US7517891B2",
  "about": "“Camptothecin derivatives and improved synthetic methods” (Glyconix Corporation, priority 2005, dated 2009)",
  "data": [
    {"smiles": "CC[C@@]1(OC(=O)CCCBr)C(=O)OCc2c1cc1n(c2=O)Cc2c-1nc1ccccc1c2CO", "values": [
      {"measurement": "melting point", "value": "172 to 176 °C (dec.)"}
    ]}
  ]
}
